Among the data in US20240246964A1 (Arbutus Biopharma Corporation, priority 2021, published 2024) are EC50 values, retold here.

pEC50: −log10 of the molar value.

Chain of human PD-L1 (Q9NZQ7 19-290): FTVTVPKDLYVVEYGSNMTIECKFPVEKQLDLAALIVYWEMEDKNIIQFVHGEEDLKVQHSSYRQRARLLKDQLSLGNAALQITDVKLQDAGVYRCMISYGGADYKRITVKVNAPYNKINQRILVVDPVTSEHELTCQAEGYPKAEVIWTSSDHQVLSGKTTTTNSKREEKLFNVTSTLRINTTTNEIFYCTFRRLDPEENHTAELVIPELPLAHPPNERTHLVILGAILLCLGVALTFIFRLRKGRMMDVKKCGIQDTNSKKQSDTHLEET

The experiment has as its target human PD-L1 (Homo sapiens (Human), UniProt Q9NZQ7). The experiment can be described thus: T cell activation luciferase reporter cell culture system (T Cell Activation Assay). The format is cell-based. Conditions: luciferase reporter assay; PD-L1 aAPC/CHO-K1 cells with PD-1 effector Jurkat T cells.
As usually defined, the pEC50 is −log10 of the EC50, conventionally taken in molar units. The compound `COc1cc(-c2nccc(-c3cccc(-c4ccc(CN[C@H]5CC[C@@H](O)CC5)c(OC)n4)c3Cl)c2Cl)ccc1CN[C@H]1CC[C@@H](O)CC1` [Example 410, (1s,4s)-4-(((6-(2-Chloro-3-(3-chloro-2-(4-((((1s,4s)-4-hydroxycyclohexyl)amino)methyl)-3-methoxyphenyl)pyridin-4-yl)phenyl)-2-methoxypyridin-3-yl)methyl)amino)cyclohexan-1-ol] showed a negative-log EC50 (pEC50) of 7.33.
The compound `COc1nc(-c2nccc(-c3cccc(NC(=O)c4cn(C)c(=O)n(C)c4=O)c3Cl)c2Cl)ccc1CNC[C@H](C)O` [Example 739, (S)—N-(2-Chloro-3-(3-chloro-5′-(((2-hydroxypropyl)amino)methyl)-6′-methoxy-[2,2′-bipyridin]-4-yl)phenyl)-1,3-dimethyl-2,4-dioxo-1,2,3,4-tetrahydropyrimidine-5-carboxamide] had a negative logarithm of the EC50 (pEC50) of 5.73.
For `COc1cc(-c2ncnc(-c3cccc(-c4ccc(CN5CC6(CNC(=O)C6)C5)c(OC)n4)c3Cl)c2Cl)ccc1CN1CC2(CNC(=O)C2)C1` [Example 554, 2-((6-(2-chloro-3-(5-chloro-6-(3-methoxy-4-((7-oxo-2,6-diazaspiro[3.4]octan-2-yl)methyl)phenyl)pyrimidin-4-yl)phenyl)-2-methoxypyridin-3-yl)methyl)-2,6-diazaspiro[3.4]octan-7-one] the value was 6.99; for `COc1cc(-c2nccc(-c3cccc(-c4ccc(CNC[C@@H]5CCC(=O)N5)c(OC)n4)c3Cl)c2Cl)cc2c1CN(CCC1CCNCC1)CC2` [Cmpd 64, (S)-5-((((6-(2-chloro-3-(3-chloro-2-(8-methoxy-2-(2-(piperidin-4-yl)ethyl)-1,2,3,4-tetrahydroisoquinolin-6-yl)pyridin-4-yl)phenyl)-2-methoxypyridin-3-yl)methyl)amino)methyl)pyrrolidin-2-one], 7.14.
The compound `COc1cc(-c2nccc(-c3cccc(-c4ccc(CN5CC6(CNC(=O)C6)C5)c(OC)n4)c3Cl)c2Cl)ccc1CN[C@H]1CC[C@@H](O)CC1` [Example 503, 2-((6-(2-Chloro-3-(3-chloro-2-(4-((((1s,4s)-4-hydroxycyclohexyl)-amino)-methyl)-3-methoxyphenyl)pyridin-4-yl)phenyl)-2-methoxypyridin-3-yl)methyl)-2,6-diazaspiro[3.4]octan-7-one] showed a pEC50 of 7.44.
Compound `COc1cc(-c2ncnc(-c3cccc(-c4ccc(CN5CC6(C5)CN(C(C)=O)C6)c(OC)n4)c3Cl)c2Cl)ccc1CN1CC2(C1)CN(C(C)=O)C2` [Example 589, 1-(6-((6-(3-(6-(4-((6-Acetyl-2,6-diazaspiro[3.3]heptan-2-yl)methyl)-3-methoxyphenyl)-5-chloropyrimidin-4-yl)-2-chlorophenyl)-2-methoxypyridin-3-yl)methyl)-2,6-diazaspiro[3.3]heptan-2-yl)ethan-1-one] gave a negative-log EC50 (pEC50) not above 5.00.
The figure for `COc1cc(-c2nccc(-c3cccc(-c4ccc(CNC5CCN(C(C)=O)CC5)c(OC)n4)c3Cl)c2C#N)ccc1CNC1CCN(C(C)=O)CC1` [Example 404, 2-(4-(((1-Acetylpiperidin-4-yl)amino)methyl)-3-methoxyphenyl)-4-(3-(5-(((1-acetylpiperidin-4-yl)amino)methyl)-6-methoxypyridin-2-yl)-2-chlorophenyl)nicotinonitrile] is 7.62; for `COc1nc(-c2cccc(-c3ccnc(-c4cc(OC)c5nc(CN[C@H]6C[C@](C)(O)C6)nn5c4)c3Cl)c2Cl)ccc1CNC[C@@H]1CCC(=O)N1` [Example 370, (S)-5-((((6-(2-Chloro-3-(3-chloro-2-(2-((((1r,3r)-3-hydroxy-3-methylcyclobutyl)amino)methyl)-8-methoxy-[1,2,4]triazolo[1,5-a]pyridin-6-yl)pyridin-4-yl)phenyl)-2-methoxypyridin-3-yl)methyl)amino)methyl)pyrrolidin-2-one] it is 7.38; for `COc1nc(-c2cncc(-c3cccc(NC(=O)c4cn(C)c(=O)n(C)c4=O)c3Cl)c2Cl)ccc1CNC[C@H](C)O` [Compound 729, (S)—N-(2-Chloro-3-(4′-chloro-5-(((2-hydroxypropyl)amino)methyl)-6-methoxy-[2,3′-bipyridin]-5′-yl)phenyl)-1,3-dimethyl-2,4-dioxo-1,2,3,4-tetrahydropyrimidine-5-carboxamide] it is 6.19.
Turning to `COc1cc(-c2nccc(-c3cccc(-c4ccc([C@H](C)N)c(OC)n4)c3Cl)c2Cl)ccc1[C@H](C)N` [Example 393, (S)-1-(6-(3-(2-(4-((S)-1-Aminoethyl)-3-methoxyphenyl)-3-chloropyridin-4-yl)-2-chlorophenyl)-2-methoxypyridin-3-yl)ethan-1-amine], the pEC50 is 6.38.
The figure for `COc1cc(-c2ncnc(-c3cccc(-c4ccc(CNCCO)c(OC)n4)c3Cl)c2Cl)ccc1CNCCO` [Example 581, 2-(((6-(2-chloro-3-(5-chloro-6-(4-(((2-hydroxyethyl)amino)methyl)-3-methoxyphenyl)pyrimidin-4-yl)phenyl)-2-methoxypyridin-3-yl)methyl)amino)ethan-1-ol] is 7.37; for `COc1cc(-c2nccc(-c3cccc(-c4ccc(CNC[C@@H]5CCC(=O)N5)c(OC)n4)c3Cl)c2Cl)ccc1CNCCO` [Cmpd 70, (S)-5-((((6-(2-chloro-3-(3-chloro-2-(4-(((2-hydroxyethyl)amino)methyl)-3-methoxyphenyl)pyridin-4-yl)phenyl)-2-methoxypyridin-3-yl)methyl)amino)methyl)pyrrolidin-2-one] it is 7.31.
The figure for `COc1cc(-c2nccc(-c3cccc(-c4cc(Cl)c(CNC[C@@H]5CCC(=O)N5)c(OC)n4)c3Cl)c2Cl)cc2c1CN(C[C@@H](C)O)CC2` [Cmpd 104, (S)-5-((((4-chloro-6-(2-chloro-3-(3-chloro-2-(2-((R)-2-hydroxypropyl)-8-methoxy-1,2,3,4-tetrahydroisoquinolin-6-yl)pyridin-4-yl)phenyl)-2-methoxypyridin-3-yl)methyl)amino)methyl)pyrrolidin-2-one] is 7.51; for `COc1cc(-c2nccc(-c3cccc(-c4ccc(CNC[C@@H]5CCC(=O)N5)c(OC)n4)c3Cl)c2Cl)ccc1CN1CC[C@H](C(=O)OC(C)C)C1` [Cmpd 76, isopropyl (S)-1-(4-(3-chloro-4-(2-chloro-3-(6-methoxy-5-(((((S)-5-oxopyrrolidin-2-yl)methyl)amino)methyl)pyridin-2-yl)phenyl)pyridin-2-yl)-2-methoxybenzyl)pyrrolidine-3-carboxylate] it is 7.05; for `COc1nc(-c2cccc(-c3ccnc(-c4ccc5c(CNC[C@@H]6CCC(=O)N6)cn(C)c5c4)c3Cl)c2Cl)ccc1CNC[C@@H]1CCC(=O)N1` [Cmpd 11, (S)-5-((((6-(2-chloro-3-(3-chloro-2-(1-methyl-3-(((((S)-5-oxopyrrolidin-2-yl)methyl)amino)methyl)-1H-indol-6-yl)pyridin-4-yl)phenyl)-2-methoxypyridin-3-yl)methyl)amino)methyl)pyrrolidin-2-one] it is 7.08.
The figure for `COc1cc(-c2nccc(-c3cccc(-c4ccc(CNC5CCN(C(=O)C(C)C)CC5)c(OC)n4)c3Cl)c2Cl)ccc1CNC1CCN(C(=O)C(C)C)CC1` [Example 346, 1-(4-(((6-(2-Chloro-3-(3-chloro-2-(4-(((1-isobutyrylpiperidin-4-yl)amino)methyl)-3-methoxyphenyl)pyridin-4-yl)phenyl)-2-methoxypyridin-3-yl)methyl)amino)piperidin-1-yl)-2-methylpropan-1-one] is 7.15; for `COc1nc(-c2nccc(-c3cccc(NC(=O)c4cn(C)c(=O)n(C)c4=O)c3Cl)c2Cl)ccc1CNC[C@@H]1CCC(=O)N1` [Example 738, (S)—N-(2-Chloro-3-(3-chloro-6′-methoxy-5′-((((5-oxopyrrolidin-2-yl)methyl)amino)methyl)-[2,2′-bipyridin]-4-yl)phenyl)-1,3-dimethyl-2,4-dioxo-1,2,3,4-tetrahydropyrimidine-5-carboxamide] it is 6.57.
For the compound `COc1nc(-c2cccc(-c3ccnc(-c4cc5c(=O)n(C)c(CN6CC(C)(O)C6)nn5c4)c3Cl)c2Cl)ccc1CNC(C)C` [Example 233, 6-(3-Chloro-4-(2-chloro-3-(5-((isopropylamino)methyl)-6-methoxypyridin-2-yl)phenyl)pyridin-2-yl)-2-((3-hydroxy-3-methylazetidin-1-yl)methyl)-3-methylpyrrolo[2,1-f][1,2,4]triazin-4(3H)-one], the negative logarithm of the EC50 (pEC50) was not above 5.00.
The figure for `COc1cc(-c2ncnc(-c3cccc(-c4ccc(CNCCO)c(OC)n4)c3Cl)c2OC)ccc1CNCCO` [Example 728, 2-((4-(6-(2-Chloro-3-(5-(((2-hydroxyethyl)amino)methyl)-6-methoxypyridin-2-yl)phenyl)-5-methoxypyrimidin-4-yl)-2-methoxybenzyl)amino)ethan-1-ol] is not above 5.00; for `COc1cc(-c2nccc(-c3cccc(-c4ccc(CN[C@H]5CC[C@H](O)CC5)c(OC)n4)c3Cl)c2C)ccc1CN[C@H]1CC[C@H](O)CC1` [Example 463, (1r,4r)-4-(((6-(2-Chloro-3-(2-(4-((((1r,4r)-4-hydroxycyclohexyl)amino)methyl)-3-methoxyphenyl)-3-methylpyridin-4-yl)phenyl)-2-methoxypyridin-3-yl)methyl)amino)cyclohexan-1-ol] it is 6.54; for `COc1cc(-c2nccc(-c3cccc(-c4ccc(CNC5CCN(C(C)=O)CC5)c(OC)n4)c3Cl)c2Cl)ccc1CNCCN1CCNC(=O)C1` [Example 479, 4-(2-((4-(4-(3-(5-(((1-Acetylpiperidin-4-yl)amino)methyl)-6-methoxypyridin-2-yl)-2-chlorophenyl)-3-chloropyridin-2-yl)-2-methoxybenzyl)amino)ethyl)piperazin-2-one] it is 7.23.
The figure for `COCCC(=O)N1CCC(NCc2ccc(-c3cccc(-c4ccnc(-c5ccc(CN6CC7(C6)CN(C(C)=O)C7)c(OC)c5)c4Cl)c3Cl)nc2OC)CC1` [Example 631, 1-(4-(((6-(3-(2-(4-((6-Acetyl-2,6-diazaspiro[3.3]heptan-2-yl)methyl)-3-methoxyphenyl)-3-chloropyridin-4-yl)-2-chlorophenyl)-2-methoxypyridin-3-yl)methyl)amino)piperidin-1-yl)-3-methoxypropan-1-one] is 7.42.
